Experimental data taken from patent publication US9265253B2, “Use of macrocyclic picolinamides as fungicides” (DOW AGROSCIENCES LLC, priority 2013, dated 2016).
Where two headings read alike, the source gives them in different places.

How the values were obtained:
Assay type in all cases: in vivo
Erysiphe cichoracearum = test: Powdery Mildew of Cucumber (ERYSCI) disease control; conditions: 1 Day Protectant; for pest or weed control at 100 ppm: Golovinomyces cichoracearum, topical, 24 h, read-out: Disease Control ERYSCI 1 DP
Description: Technical grades of materials were dissolved in acetone, which were then mixed with nine volumes of water containing 110 ppm Triton X-100. The fungicide solutions were applied onto wheat seedlings using an automated booth sprayer to run-off. All sprayed plants were allowed to air dry prior to further handling. All fungicides were evaluated using the aforementioned method for their activity vs. all target diseases. Wheat leaf blotch and brown rust activity were also evaluated using track spray applications, in which case the fungicides were formulated as EC formulations, containing 0.1% Trycol 5941 in the spray solutions. Wheat plants (variety Yuma) were grown from seed in a greenhouse in 50% mineral soil/50% soil-less Metro mix until the first leaf was fully emerged, with 7-10 seedlings per pot. These plants were inoculated with an aqueous spore suspension of Septoria tritici either prior to or after fungicide treatments. After inoculation the plants were kept in 100% relative humidity (one day in a dark dew chamber followed by two to three days in a lighted dew chamber at 20° C.) to permit spores to germinate and infect the leaf. The plants were then transferred to a greenhouse set at 20° C. for disease to develop. When disease symptoms were fully expressed on the 1st leaves of untreated plants, infection levels were assessed on a scale of 0 to 100 percent disease severity. Percent disease control was calculated using the ratio of disease severity on treated plants relative to untreated plants. Cucumber seedlings (variety Bush Pickle) were grown in soil-less Metro mix, with one plant per pot, and used in the test when 12 to 14 days old. Plants were inoculated with a spore suspension 24 hr following fungicide treatments. After inoculation the plants remained in the greenhouse set at 20° C. until disease was fully expressed. Fungicide formulation, application and disease assessment on the sprayed leaves followed the procedures as described in the Example A.

[1] = test system: Blumeria graminis f. sp. hordei; Synonym: Erysiphe graminis f. sp. hordei; test: Barley Powdery Mildew (ERYSGH) disease control; conditions: 1 Day Protectant; for pest or weed control at 100 ppm: Blumeria graminis, 24 h, read-out: Disease Control ERYSGH 1 DP; for Disease Control ERYSGH 1 DP: 100 ppm
Description: Technical grades of materials were dissolved in acetone, which were then mixed with nine volumes of water containing 110 ppm Triton X-100. The fungicide solutions were applied onto wheat seedlings using an automated booth sprayer to run-off. All sprayed plants were allowed to air dry prior to further handling. All fungicides were evaluated using the aforementioned method for their activity vs. all target diseases. Wheat leaf blotch and brown rust activity were also evaluated using track spray applications, in which case the fungicides were formulated as EC formulations, containing 0.1% Trycol 5941 in the spray solutions. Wheat plants (variety Yuma) were grown from seed in a greenhouse in 50% mineral soil/50% soil-less Metro mix until the first leaf was fully emerged, with 7-10 seedlings per pot. These plants were inoculated with an aqueous spore suspension of Septoria tritici either prior to or after fungicide treatments. After inoculation the plants were kept in 100% relative humidity (one day in a dark dew chamber followed by two to three days in a lighted dew chamber at 20° C.) to permit spores to germinate and infect the leaf. The plants were then transferred to a greenhouse set at 20° C. for disease to develop. When disease symptoms were fully expressed on the 1st leaves of untreated plants, infection levels were assessed on a scale of 0 to 100 percent disease severity. Percent disease control was calculated using the ratio of disease severity on treated plants relative to untreated plants. Barley seedlings (variety Harrington) were propagated in soil-less Metro mix, with each pot having 8 to 12 plants, and used in the test when first leaf was fully emerged. Test plants were inoculated by dusting with infected stock plants 24 hr after fungicide treatments. After inoculation the plants were kept in a greenhouse set at 20° C. for disease to develop. Fungicide formulation, application and disease assessment on the sprayed leaves followed the procedures as described in the Example A.

Phakopsora pachyrhizi = test: Asian Soybean Rust (PHAKPA) disease control; conditions: for pest or weed control at 25 ppm: Phakopsora pachyrhizi, topical
Description: Technical grades of materials were dissolved in acetone, which were then mixed with nine volumes of water containing 0.011% Tween 20. The fungicide solutions were applied onto soybean seedlings using an automated booth sprayer to run-off. All sprayed plants were allowed to air dry prior to further handling.
Soybean plants (variety Williams 82) were grown in soil-less Metro mix, with one plant per pot. Two weeks old seedlings were used for testing. Plants were inoculated either 3 days prior to or 1 day after fungicide treatments. Plants were incubated for 24 h in a dark dew room at 22° C. and 100% RH then transferred to a growth room at 23° C. for disease to develop. Disease severity was assessed on the sprayed leaves.

Uncinula necator = test: Grape Powdery Mildew (UNCINE) disease control; conditions: 1 Day Protectant; for pest or weed control at 100 ppm: Erysiphe necator, topical, 24 h, read-out: Disease Control UNCINE 1 DP
Description: Technical grades of materials were dissolved in acetone, which were then mixed with nine volumes of water containing 110 ppm Triton X-100. The fungicide solutions were applied onto wheat seedlings using an automated booth sprayer to run-off. All sprayed plants were allowed to air dry prior to further handling. All fungicides were evaluated using the aforementioned method for their activity vs. all target diseases. Wheat leaf blotch and brown rust activity were also evaluated using track spray applications, in which case the fungicides were formulated as EC formulations, containing 0.1% Trycol 5941 in the spray solutions. Wheat plants (variety Yuma) were grown from seed in a greenhouse in 50% mineral soil/50% soil-less Metro mix until the first leaf was fully emerged, with 7-10 seedlings per pot. These plants were inoculated with an aqueous spore suspension of Septoria tritici either prior to or after fungicide treatments. After inoculation the plants were kept in 100% relative humidity (one day in a dark dew chamber followed by two to three days in a lighted dew chamber at 20° C.) to permit spores to germinate and infect the leaf. The plants were then transferred to a greenhouse set at 20° C. for disease to develop. When disease symptoms were fully expressed on the 1st leaves of untreated plants, infection levels were assessed on a scale of 0 to 100 percent disease severity. Percent disease control was calculated using the ratio of disease severity on treated plants relative to untreated plants. Grape seedlings (variety Carignane) were grown in soil-less Metro mix, with one plant per pot, and used in the test when approximately one month old. Plants were inoculated 24 hr after fungicide treatment by shaking spores from infected leaves over test plants. Plants were maintained in a greenhouse set at 20° C. until disease was fully developed. Fungicide formulation, application and disease assessment on the sprayed leaves followed the procedures as described in the Example A.

[2] = 24 h, 1 Day Protectant, read-out: Disease Control PHAKPA 1DP
[3] = 72 h, 3 Day Curative, read-out: Disease Control PHAKPA 3DC

SMILES | pest or weed control at 100 ppm (Erysiphe cichoracearum) | pest or weed control at 100 ppm [1] | pest or weed control at 25 ppm (Phakopsora pachyrhizi; [2]) | pest or weed control at 25 ppm (Phakopsora pachyrhizi; [3]) | pest or weed control at 100 ppm (Uncinula necator) | Disease Control ERYSGH 1 DP [1] | Disease Control PHAKPA 3DC (Phakopsora pachyrhizi; 25 ppm, 3 Day Curative) | Disease Control ERYSCI 1 DP (Erysiphe cichoracearum; 100 ppm) | Disease Control PHAKPA 1DP (Phakopsora pachyrhizi; 25 ppm, 1 Day Protectant) | Disease Control UNCINE 1 DP (Uncinula necator; 100 ppm)
CCOCC(=O)OCOc1c(OC)ccnc1C(=O)N[C@H]1CCC[C@H](CCOC)[C@@H](Oc2ccccc2)[C@H](C)OC1=O [Compound F183] | 0 to 80% | 0 to 80% | 80 to 100% | 80 to 100% | 80 to 100% |  |  |  |  | 
COc1ccnc(C(=O)N[C@H]2CCC[C@H](CC3CCCC3)[C@@H](OCC3CC3)[C@H](C)OC2=O)c1OCOC(C)=O [Compound F117] | 80 to 100% | 80 to 100% | 80 to 100% | 80 to 100% | 80 to 100% |  |  |  |  | 
COc1ccnc(C(=O)N[C@H]2CCC[C@H](Cc3ccc(F)cc3F)[C@@H](OCC(C)C)[C@H](C)OC2=O)c1OCOC(C)=O [Compound F145] | 80 to 100% | 80 to 100% | 80 to 100% | 0 to 80% | 80 to 100% |  |  |  |  | 
COc1ccnc(C(=O)N[C@H]2CCC[C@H](Cc3ccc(F)cc3)[C@@H](OCC3CC3)[C@H](C)OC2=O)c1OCOC(C)=O [Compound F96] | 80 to 100% |  | 80 to 100% |  | 80 to 100% | B (More than 0-Less than 80) | B (More than 0-Less than 80) |  |  | 
COc1ccnc(C(=O)N[C@H]2CCC[C@H](CCF)[C@@H](OCC(C)C)[C@H](C)OC2=O)c1OCOC(C)=O [Compound F128, ((2-(((3S,7R,8R,9S)-7-(2-fluoroethyl)-8-isobutoxy-9-methyl-2-oxooxonan-3-yl)carbamoyl)-4-methoxypyridin-3-yl)oxy)methyl acetate] | 0 to 80% | 0 to 80% | 80 to 100% | 80 to 100% | 80 to 100% |  |  |  |  | 
COc1ccnc(C(=O)N[C@H]2CCC[C@H](Cc3ccccc3)[C@@H](OCC(C)C)[C@H](C)OC2=O)c1OCOC(C)=O [Compound F106] | 80 to 100% | 80 to 100% | 80 to 100% | 0 to 80% | 80 to 100% |  |  |  |  | 
CCOCC(=O)OCOc1c(OC)ccnc1C(=O)N[C@H]1CCC[C@H](Cc2ccc(F)cc2)[C@@H](OCC2CC2)[C@H](C)OC1=O [Compound F164] | 80 to 100% | 80 to 100% | 80 to 100% | 0 to 80% | 80 to 100% |  |  |  |  | 
COc1ccnc(C(=O)N[C@H]2CCC[C@H](Cc3ccc(F)cc3)[C@@H](OCC3CC3)[C@H](C)OC2=O)c1OCOC(C)=O [Compound F98] |  |  |  |  |  | A (80-100) | A (80-100) | A (80-100) | A (80-100) | A (80-100)
COc1ccc(C[C@H]2CCC[C@H](NC(=O)c3nccc(OC)c3OCOC(C)=O)C(=O)O[C@@H](C)[C@@H]2OCC(C)C)cc1 [Compound F118] | 0 to 80% |  | 80 to 100% | 0 to 80% |  |  |  |  |  | 
COc1ccnc(C(=O)N[C@H]2CCC[C@H](Cc3ccccc3)[C@@H](OCC3CC3)[C@H](C)OC2=O)c1OCOC(C)=O [Compound F107] | 80 to 100% | 80 to 100% | 80 to 100% | 80 to 100% | 0 to 80% |  |  |  |  | 
COc1ccnc(C(=O)N[C@H]2CCC[C@H](Cc3ccc(C)cc3)[C@@H](OCC(C)C)[C@H](C)OC2=O)c1OCOC(C)=O [Compound F126] | 80 to 100% |  |  |  |  |  |  |  |  | 
CCCO[C@@H]1[C@@H](CCC(C)C)CCC[C@H](NC(=O)c2nccc(OC)c2OCOC(=O)COCC)C(=O)O[C@H]1C [Compound F161] | 80 to 100% | 80 to 100% | 80 to 100% | 80 to 100% | 80 to 100% |  |  |  |  | 
CCCO[C@@H]1[C@@H](Cc2ccccc2)CCC[C@H](NC(=O)c2nccc(OC)c2OC(C)=O)C(=O)O[C@H]1C [Compound F88] | 80 to 100% | 80 to 100% |  |  | 80 to 100% |  |  |  |  | 
COc1ccnc(C(=O)N[C@H]2CCC[C@H](Cc3ccccc3)[C@@H](OCC(C)C)[C@H](C)OC2=O)c1OCOC(=O)C(C)C [Compound F151] | 80 to 100% | 80 to 100% | 80 to 100% | 80 to 100% |  |  |  |  |  | 
CCCO[C@@H]1[C@@H](Cc2ccc(OC)cc2)CCC[C@H](NC(=O)c2nccc(OC)c2OCOC(C)=O)C(=O)O[C@H]1C [Compound F119] | 80 to 100% |  | 80 to 100% | 0 to 80% |  |  |  |  |  | 
CCCO[C@@H]1[C@@H](Cc2ccccc2)CCC[C@H](NC(=O)c2nccc(OC)c2OC(=O)CCOC)C(=O)O[C@H]1C [Compound F198] | 80 to 100% | 80 to 100% |  |  | 80 to 100% |  |  |  |  | 
CCOCC(=O)OCOc1c(OC)ccnc1C(=O)N[C@H]1CCC[C@H](CC2CCCCC2)[C@@H](OCC(C)C)[C@H](C)OC1=O [Compound F175] | 0 to 80% | 80 to 100% |  |  | 0 to 80% |  |  |  |  | 
CCO[C@@H]1[C@@H](Cc2ccccc2)CCC[C@H](NC(=O)c2nccc(OC)c2OC(C)=O)C(=O)O[C@H]1C [Compound F87] | 0 to 80% | 80 to 100% |  |  | 80 to 100% |  |  |  |  | 
COc1ccnc(C(=O)N[C@H]2CCC[C@H](Cc3ccc(F)cc3F)[C@@H](OC(=O)c3ccco3)[C@H](C)OC2=O)c1OCOC(C)=O [Compound F144] | 0 to 80% |  | 0 to 80% |  | 0 to 80% |  |  |  |  | 
